Laboratory results: patent US20150291598A1 (NOVARTIS AG, priority 2012, published 2015)

Each compound was assayed on P. falciparum (NF54 or 3D7 strain) (assay: Assay for P. falciparum proliferation in infected human blood cells (SYBR Green)). Conditions: Plasmodium falciparum, Erythrocyte, 72 h, NF54 or 3D7 infected human erythrocytes, 72 hours; read-out: EC50 (nM), inhibitory efficacy in delaying P. falciparum proliferation in infected human blood cells.
Assay type: cell-based, Plasmodium falciparum
How it was run: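 Infected erythrocytes (NF54 or 3D7; final 2.5% hematocrit, 0.3% parasitemia) were incubated with compounds for 72 h at 37 °C in low oxygen (3% O2, 4% CO2, 93% N2).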

| EC50 [nM] | Structure (SMILES) |
| --- | --- |
| > 9340 | Cc1ccc(N(C)C(=O)c2cn3c(-c4ccc(OCCN)cc4)cnc3cn2)nc1 [Compound 409, 3-[4-(2-aminoethoxyl)phenyl]-N-methyl-N-(5-methylpyridin-2-yl)imidazo[1,2-a]pyrazine-6-carboxamide] |
| 6620 | CN(C(=O)c1cn2c(-c3ccc(C(F)(F)F)cc3)cnc2cn1)c1ccc(C(C)(C)C)nc1 [Compound 384, N-(6-tert-butylpyridin-3-yl)-N-methyl-3-[4-(trifluoromethyl)phenyl]imidazo[1,2-a]pyrazine-6-carboxamide] |
| > 10000 | CN(C(=O)c1cn2c(-c3ccncc3)cnc2cn1)c1ccc(C#N)cc1 [Compound 385, -(4-cyanophenyl)-N-methyl-3-(pyridin-4-yl)imidazo[1,2-a]pyrazine-6-carboxamide] |
| 1070 | CCn1nccc1N(C)C(=O)c1cn2c(-c3ccc(C(F)(F)F)cc3)cnc2cn1 [Compound 298, N-(1-ethyl-1H-pyrazol-5-yl)-N-methyl-3-[4-(trifluoromethyl)phenyl]imidazo[1,2-a]pyrazine-6-carboxamide] |
| 76 | CN(C(=O)c1cn2c(-c3ccc(-c4ccn[nH]4)cc3)cnc2cn1)c1ccc(F)c(F)c1 [Compound 258, N-(3,4-difluorophenyl)-N-methyl-3-[4-(1H-pyrazol-5-yl)phenyl]imidazo[1,2-a]pyrazine-6-carboxamide] |
| 602 | CN(C(=O)c1cn2c(-c3ccc(Cl)cc3)cnc2cn1)c1ccc(S(C)(=O)=O)cc1 [Compound 17, 3-(4-chlorophenyl)-N-(4-methanesulfonylphenyl)-N-methylimidazo[1,2-a]pyrazine-6-carboxamide] |
| 648 | CN(C(=O)c1cn2c(-c3ccc4[nH]ncc4c3)cnc2cn1)c1ccc(C#N)cc1 [Compound 145, N-(4-cyanophenyl)-3-(1H-indazol-5-yl)-N-methylimidazo[1,2-a]pyrazine-6-carboxamide] |
| 2020 | CN(C(=O)c1ccc(C(F)(F)F)nc1)c1cn2c(-c3ccc(C(F)(F)F)cc3)cnc2cn1 [Compound 308, N-methyl-6-(trifluoromethyl)-N-{3-[4-(trifluoromethyl)phenyl]imidazo[1,2-a]pyrazin-6-yl}pyridine-3-carboxamide] |
| 66 | CN(Cc1cn2c(-c3ccc(-c4ccn[nH]4)cc3)cnc2cn1)c1ccc(C#N)cc1 [Compound 2, 4-(((3-(4-(1H-pyrazol-5-yl)phenyl)imidazo[1,2-a]pyrazin-6-yl)methyl)(methyl)amino)benzonitrile] |
| 604 | O=C(Nc1nc2cccc(Cl)c2s1)c1cn2c(-c3ccc(C(F)(F)F)cc3)cnc2cn1 [Compound 442, N-(7-chloro-1,3-benzothiazol-2-yl)-3-[4-(trifluoromethyl)phenyl]imidazo[1,2-a]pyrazine-6-carboxamide] |
| 436 | Cc1ccc(N(C)Cc2cn3c(-c4ccc(C(F)(F)F)cc4)cnc3cn2)cc1 [Compound 263, N,4-dimethyl-N-({3-[4-(trifluoromethyl)phenyl]imidazo[1,2-a]pyrazin-6-yl}methyl)aniline] |
| 3990 | CN(C(=O)c1cn2c(-c3ccc(C#N)cc3)cnc2cn1)c1ccc(S(C)(=O)=O)cc1 [Compound 232, 3-(4-cyanophenyl)-N-(4-methanesulfonylphenyl)-N-methylimidazo[1,2-a]pyrazine-6-carboxamide] |
| > 9280 | Cc1nnc(-c2ccc(-c3cnc4cnc(C(=O)N(C)c5ccc(Cl)nc5)cn34)cn2)o1 [Compound 367, N-(6-chloropyridin-3-yl)-N-methyl-3-[6-(5-methyl-1,3,4-oxadiazol-2-yl)pyridin-3-yl]imidazo[1,2-a]pyrazine-6-carboxamide] |
| 2120 | CN(C(=O)N1CCC(C)(C)CC1)c1cn2c(-c3ccc(C(F)(F)F)cc3)cnc2cn1 [Compound 294, N,4,4-trimethyl-N-{3-[4-(trifluoromethyl)phenyl]imidazo[1,2-a]pyrazin-6-yl}piperidine-1-carboxamide] |
| 82 | CN(Cc1cn2c(-c3ccc4c(cnn4C)c3)cnc2cn1)c1ccc(C#N)cc1 [Compound 62, 4-[methyl({[3-(1-methyl-1H-indazol-5-yl)imidazo[1,2-a]pyrazin-6-yl]methyl})amino]benzonitrile] |
| > 10000 | CN(C(=O)c1cn2c(-c3ccc(C(F)(F)F)cc3)cnc2cn1)c1cccc2nncn12 [Compound 416, N-methyl-N-{[1,2,4]triazolo[4,3-a]pyridin-5-yl}-3-[4-(trifluoromethyl)phenyl]imidazo[1,2-a]pyrazine-6-carboxamide] |
| 1200 | CN(C(=O)c1cn2c(-c3ccc4[nH]ccc4c3)cnc2cn1)c1ccc(Cl)nc1 [Compound 301, N-(6-chloropyridin-3-yl)-3-(1H-indol-5-yl)-N-methylimidazo[1,2-a]pyrazine-6-carboxamide] |
| 4500 | CN(C(=O)c1cn2c(-c3cnc(N)nc3)cnc2cn1)c1ccc(C#N)cc1 [Compound 380, 3-(2-aminopyrimidin-5-yl)-N-(4-cyanophenyl)-N-methylimidazo[1,2-a]pyrazine-6-carboxamide] |
| 2510 | COc1ccc(-c2cnc3cnc(C(=O)N(C)c4ccc(C#N)cc4)cn23)cc1C [Compound 30, N-(4-cyanophenyl)-3-(4-methoxy-3-methylphenyl)-N-methylimidazo[1,2-a]pyrazine-6-carboxamide] |
| 2760 | CN(C(=O)c1cn2c(-c3ccc(C(F)(F)F)cc3)cnc2cn1)c1ccnc(C(F)(F)F)c1 [Compound 329, N-methyl-3-[4-(trifluoromethyl)phenyl]-N-[2-(trifluoromethyl)pyridin-4-yl]imidazo[1,2-a]pyrazine-6-carboxamide] |
| 1980 | NC(=O)c1ccc(-c2cn3c(-c4ccc(C(N)=O)cc4)cnc3cn2)cc1 [Compound 210, 4-[3-(4-carbamoylphenyl)imidazo[1,2-a]pyrazin-6-yl]benzamide] |
| 112 | CN(C(=O)c1cn2c(-c3ccc(-c4nnco4)cc3)cnc2cn1)c1ccc(C#N)cc1 [Compound 240, N-(4-cyanophenyl)-N-methyl-3-[4-(1,3,4-oxadiazol-2-yl)phenyl]imidazo[1,2-a]pyrazine-6-carboxamide] |
| 1260 | Cc1noc(-c2ccc(-c3cnc4cnc(C(=O)N(C)c5ccc(C#N)cc5)cn34)cc2)n1 [Compound 339, N-(4-cyanophenyl)-N-methyl-3-[4-(3-methyl-1,2,4-oxadiazol-5-yl)phenyl]imidazo[1,2-a]pyrazine-6-carboxamide] |
| 402 | CC(C)[C@@H](N)C(=O)Nc1ccc(-c2cnc3cnc(C(=O)N(C)c4ccc(C#N)cc4)cn23)cc1 [Compound 286, 3-{4-[(2R)-2-amino-3-methylbutanamido]phenyl}-N-(4-cyanophenyl)-N-methylimidazo[1,2-a]pyrazine-6-carboxamide] |
| > 10000 | CCN(CC)C(=O)c1ccc(-c2cnc3cnc(C(=O)N(C)c4ccc(C#N)cc4)cn23)cc1 [Compound 188, N-(4-cyanophenyl)-3-[4-(diethylcarbamoyl)phenyl]-N-methylimidazo[1,2-a]pyrazine-6-carboxamide] |
| 2260 | CN(C(=O)c1cn2c(-c3ccc(-c4ccn[nH]4)cc3)cnc2cn1)c1ccc(C#N)cn1 [Compound 182, N-(5-cyanopyridin-2-yl)-N-methyl-3-[4-(1H-pyrazol-5-yl)phenyl]imidazo[1,2-a]pyrazine-6-carboxamide] |
